Data reported in patent US20130023575A1, “COMPOSITIONS AND METHODS FOR THE TREATMENT OF OCULAR SURFACE ALLERGIES” (priority 2011, published 2013).

Assay: bromfenac in solution in the flowable mucoadhesive polymer carrier
Assay type: physicochemical
Conditions: by weight of the composition
Excerpt: As used herein the term “retained in or carried with” or “retaining or carrying” embraces generally all ways that bromfenac can be associated with the flowable mucoadhesive polymer. For example, bromfenac can be in aqueous solution dispersed throughout the polymer. A bromfenac concentration of up to about 0.36% will be in solution mixed with or dispersed throughout the flowable mucoadhesive polymer carrier. Bromfenac can also be in suspension with the polymer depending on its concentration. For example, when bromfenac is used in an amount more than about 0.36% by weight of the composition, some of the bromfenac can be in suspension with the polymer carrier while an amount of up to about […] of bromfenac will still be in solution and mixed with the polymer carrier.

- bromfenac concentration in solution mixed with or dispersed throughout the polymer carrier: up to 0.36%
Structure (SMILES): Nc1c(CC(=O)O)cccc1C(=O)c1ccc(Br)cc1 [bromfenac]
